# Results published in PubChem BioAssay (NCI).
# Values joined by “and” are separate entries in the source; they are usually repeats but may differ in a detail not shown here. Equal entries are not always repeated.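 Grown in 96-well plates, cells were treated for 48 hours with each compound at five concentrations. Insufficient inhibition: endpoint recorded as highest concentration tested. The concentration for 50% growth inhibition is given as GI50. The concentration for full growth arrest is given as TGI.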 Where a SMILES comes first, the peptide text is derived from it. [ ]: non-standard residue; d: D form.
# Experiments:
# Assay in all cases: DTP human tumour cell line panel, 48 h
# SF-295 CNS = test system: SF-295 CNS
# SF-539 CNS = test system: SF-539 CNS
# SK-MEL-5 melanoma = test system: SK-MEL-5 melanoma
# NCI/ADR-RES ovarian = test system: NCI/ADR-RES ovarian
# DU-145 prostate = test system: DU-145 prostate
# HCT-116 colon = test system: HCT-116 colon
# OVCAR-4 ovarian = test system: OVCAR-4 ovarian
# HCC-2998 colon = test system: HCC-2998 colon
# LOX IMVI melanoma = test system: LOX IMVI melanoma
# SNB-75 CNS = test system: SNB-75 CNS
smiles,measurement,setting,value
CCCN=C1NC(C)=CSC(Nc2ccccc2)=C1C#N,TGI,SF-295 CNS,> 100 µM
same,TGI,SF-539 CNS,> 100 µM
same,TGI,SK-MEL-5 melanoma,> 100 µM
same,TGI,NCI/ADR-RES ovarian,> 100 µM
same,TGI,DU-145 prostate,> 100 µM
same,TGI,HCT-116 colon,> 100 µM
same,TGI,OVCAR-4 ovarian,> 100 µM
CC(=O)/C=C(/C)[O-].CC(=O)/C=C(/C)[O-].CC(=O)[CH-]C(C)=O.CC(=O)[CH-]C(C)=O.[Zr+4],GI50,HCC-2998 colon,> 100 µM
same,TGI,HCC-2998 colon,> 100 µM
same,GI50,LOX IMVI melanoma,> 100 µM
same,TGI,LOX IMVI melanoma,> 100 µM
same,GI50,SF-539 CNS,> 100 µM
same,TGI,SF-539 CNS,> 100 µM
same,GI50,HCT-116 colon,3.89 µM
same,TGI,HCT-116 colon,16.3 µM
same,GI50,OVCAR-4 ovarian,> 100 µM
same,TGI,OVCAR-4 ovarian,> 100 µM
same,GI50,SNB-75 CNS,> 100 µM
same,TGI,SNB-75 CNS,> 100 µM
CC(C)OC1=C(CC2(C)OCCO2)C(=O)C12OCCO2,TGI,SF-295 CNS,> 100 µM
same,TGI,LOX IMVI melanoma,> 100 µM
same,TGI,SF-539 CNS,> 100 µM
same,TGI,SK-MEL-5 melanoma,> 100 µM
same,TGI,NCI/ADR-RES ovarian,> 100 µM
same,TGI,DU-145 prostate,> 100 µM
same,TGI,HCT-116 colon,> 100 µM
same,TGI,OVCAR-4 ovarian,> 100 µM
same,TGI,SNB-75 CNS,> 100 µM
CC(C)C[C@H](NC(=O)[C@H](CC(C)C)NC(=O)[C@@H](Cc1c[nH]c2ccccc12)NC(=O)[C@H](Cc1ccccc1)NC(=O)[C@@H](Cc1c[nH]c2ccccc12)NC(=O)[C@H](CCC(N)=O)NC(=O)[C@@H](CCC(N)=O)NC(=O)[C@@H]1CCCN1C(=O)[C@@H](CCCCN)NC(=O)[C@H]1CCCN1C(=O)[C@H](N)CCCN=C(N)N)C(N)=O (H-[dR][dP][dK]P[dQ]Q[dW]F[dW]LL-NH2),TGI,SF-295 CNS,> 100 µM
same,TGI,HCC-2998 colon,> 100 µM
same,TGI,LOX IMVI melanoma,> 100 µM
same,TGI,SF-539 CNS,> 100 µM
same,TGI,SK-MEL-5 melanoma,> 100 µM
same,TGI,NCI/ADR-RES ovarian,> 100 µM
same,TGI,HCT-116 colon,> 100 µM
same,TGI,OVCAR-4 ovarian,> 100 µM
same,TGI,SNB-75 CNS,> 100 µM
CC1(C)CCC2=C(O1)c1ccccc1C(=Nc1ccc([N+](=O)[O-])cc1)C2=O,GI50,SF-295 CNS,14.9 µM
same,TGI,SF-295 CNS,29.9 µM
same,TGI,HCC-2998 colon,32.2 µM
same,GI50,LOX IMVI melanoma,7.59 µM
same,TGI,LOX IMVI melanoma,> 100 µM
same,TGI,SK-MEL-5 melanoma,30.3 µM
same,TGI,NCI/ADR-RES ovarian,> 100 µM
same,GI50,DU-145 prostate,16.8 µM
same,TGI,DU-145 prostate,30.4 µM
same,TGI,HCT-116 colon,19.9 µM
same,TGI,OVCAR-4 ovarian,38.7 µM
same,TGI,SNB-75 CNS,38.4 µM
[N-]=[N+]=C(C(=O)CN1CCCC1=O)S(=O)(=O)c1ccccc1,TGI,SF-295 CNS,> 100 µM
same,TGI,HCC-2998 colon,> 100 µM
same,TGI,LOX IMVI melanoma,> 100 µM
same,TGI,SF-539 CNS,> 100 µM
same,TGI,SK-MEL-5 melanoma,> 100 µM
same,TGI,NCI/ADR-RES ovarian,> 100 µM
same,TGI,DU-145 prostate,> 100 µM
same,TGI,HCT-116 colon,> 100 µM
same,TGI,SNB-75 CNS,> 100 µM
O=C1C(Cl)N(c2ccc([N+](=O)[O-])cc2)C1c1c[nH]c2ccccc12 (configuration not stated),TGI,SF-295 CNS,> 100 µM
same,TGI,SF-539 CNS,> 100 µM
same,TGI,SK-MEL-5 melanoma,> 100 µM
same,TGI,HCT-116 colon,> 100 µM
same,TGI,OVCAR-4 ovarian,> 100 µM
same,TGI,SNB-75 CNS,> 100 µM
CCN(CC)/N=C\c1c2ccccc2cc2ccccc12,TGI,SF-295 CNS,> 100 µM
same,TGI,SF-539 CNS,> 100 µM
same,TGI,SK-MEL-5 melanoma,40.2 µM
same,TGI,NCI/ADR-RES ovarian,> 100 µM
same,TGI,DU-145 prostate,> 100 µM
same,TGI,HCT-116 colon,> 100 µM
same,TGI,OVCAR-4 ovarian,> 100 µM
same,TGI,SNB-75 CNS,68.7 µM
NS(=O)(=O)c1nnc(NS(=O)(=O)c2cccc3cccnc23)s1,TGI,SF-295 CNS,> 100 µM
same,TGI,HCC-2998 colon,> 100 µM
same,TGI,LOX IMVI melanoma,> 100 µM
same,TGI,SF-539 CNS,> 100 µM
same,TGI,SK-MEL-5 melanoma,> 100 µM
same,TGI,NCI/ADR-RES ovarian,> 100 µM
same,TGI,DU-145 prostate,> 100 µM
same,TGI,HCT-116 colon,> 100 µM
same,TGI,OVCAR-4 ovarian,> 100 µM
COC(=O)/C1=C/C=C\C[C@@]2(C)CC(c3ccoc3)OC(=O)[C@@H]2CC[C@H]1C (some centres not stated),TGI,SF-295 CNS,> 25 µM
same,TGI,HCC-2998 colon,> 25 µM
same,TGI,LOX IMVI melanoma,> 25 µM
same,TGI,SF-539 CNS,> 25 µM
same,TGI,SK-MEL-5 melanoma,> 25 µM
same,TGI,NCI/ADR-RES ovarian,> 25 µM
same,TGI,HCT-116 colon,> 25 µM
same,TGI,OVCAR-4 ovarian,> 25 µM
same,TGI,SNB-75 CNS,> 25 µM
[N-]=[N+]=Nc1cc(=O)[nH]c2ccccc12,TGI,SF-295 CNS,> 100 µM
same,TGI,SF-539 CNS,> 100 µM
same,TGI,SK-MEL-5 melanoma,> 100 µM
same,TGI,NCI/ADR-RES ovarian,> 100 µM
same,TGI,HCT-116 colon,> 100 µM
same,TGI,OVCAR-4 ovarian,> 100 µM
same,TGI,SNB-75 CNS,> 100 µM
Cc1nc(N)c(N2CCN(S(=O)(=O)N(Cc3ccccc3)Cc3ccccc3)CC2)c(=O)[nH]1,TGI,SF-295 CNS,65.8 µM
same,TGI,HCC-2998 colon,> 100 µM
same,TGI,LOX IMVI melanoma,> 100 µM
same,TGI,SF-539 CNS,80.6 µM
same,TGI,NCI/ADR-RES ovarian,> 100 µM
same,TGI,DU-145 prostate,52.7 µM
same,TGI,HCT-116 colon,> 100 µM
same,TGI,OVCAR-4 ovarian,93.6 µM
same,TGI,SNB-75 CNS,28.6 µM
O=c1c(O)c(-c2ccccc2)oc2c(CP(=O)(O)O)cccc12,TGI,SF-295 CNS,> 100 µM
same,TGI,HCC-2998 colon,> 100 µM
same,TGI,SF-539 CNS,> 100 µM
same,TGI,SK-MEL-5 melanoma,> 100 µM
same,TGI,DU-145 prostate,> 100 µM
same,TGI,HCT-116 colon,> 100 µM
same,TGI,OVCAR-4 ovarian,> 100 µM
O=S(=O)(O)c1cc(S(=O)(=O)O)c2cc(N=Nc3ccc(N=Nc4ccc(/C=C/c5ccc(N=[N+]([O-])c6ccc(/C=C/c7ccc(N=Nc8ccc(N=Nc9ccc%10cc(S(=O)(=O)O)cc(S(=O)(=O)O)c%10c9)cc8)cc7S(=O)(=O)O)c(S(=O)(=O)O)c6)cc5S(=O)(=O)O)c(S(=O)(=O)O)c4)cc3)ccc2c1,TGI,SF-295 CNS,> 74.3 µM
same,TGI,HCC-2998 colon,> 100 µM
same,TGI,LOX IMVI melanoma,> 100 µM
same,TGI,SF-539 CNS,> 100 µM
same,TGI,SK-MEL-5 melanoma,> 100 µM
same,TGI,NCI/ADR-RES ovarian,> 100 µM
same,TGI,HCT-116 colon,> 100 µM
same,TGI,OVCAR-4 ovarian,> 100 µM
same,TGI,SNB-75 CNS,> 100 µM
Cc1ccc(/C=c2\c(=O)[nH]c3nc4ccccc4c(=O)n23)cc1,TGI,SF-295 CNS,> 100 µM
same,TGI,HCC-2998 colon,62.6 µM
same,TGI,LOX IMVI melanoma,> 100 µM
same,TGI,SF-539 CNS,43.7 µM
same,TGI,NCI/ADR-RES ovarian,> 100 µM
same,TGI,DU-145 prostate,> 100 µM
same,TGI,HCT-116 colon,> 100 µM
same,TGI,OVCAR-4 ovarian,> 100 µM
same,TGI,SNB-75 CNS,75.6 µM
COc1cc(C2c3cccc4cccc(c34)C3CCC(=O)N32)cc(OC)c1O (configuration not stated),TGI,SF-295 CNS,> 50 µM
same,TGI,SF-539 CNS,> 50 µM
same,TGI,NCI/ADR-RES ovarian,> 50 µM
same,TGI,DU-145 prostate,> 50 µM
same,TGI,HCT-116 colon,> 50 µM
same,TGI,OVCAR-4 ovarian,> 50 µM
same,TGI,SNB-75 CNS,> 50 µM
Cc1cc(C)[n+]2c(c1)C=CC2,TGI,SF-295 CNS,71.8 µM
same,TGI,HCC-2998 colon,> 100 µM
same,TGI,LOX IMVI melanoma,> 100 µM
same,TGI,SF-539 CNS,79.4 µM
same,TGI,SK-MEL-5 melanoma,43.1 µM
same,TGI,OVCAR-4 ovarian,> 100 µM
same,TGI,SNB-75 CNS,41.9 µM
O=C(Nc1ccc(Br)cc1)C(=O)C(C(=O)c1ccc(Cl)c(Cl)c1)C1OC(=O)c2ccccc21 (configuration not stated),TGI,SF-295 CNS,65.3 µM
same,TGI,HCC-2998 colon,29.2 µM
same,TGI,LOX IMVI melanoma,47 µM
same,TGI,HCT-116 colon,25.9 µM
same,TGI,OVCAR-4 ovarian,50.5 µM
same,TGI,SNB-75 CNS,65.9 µM
N#Cc1ccc(-c2ccc(Cl)cc2)n(C2OC(CO)C(O)C(O)C2O)c1=S (configuration not stated),TGI,SF-295 CNS,> 100 µM and 17.9 µM
same,TGI,HCC-2998 colon,> 100 µM
same,TGI,LOX IMVI melanoma,> 100 µM
same,TGI,SF-539 CNS,> 100 µM
same,TGI,SK-MEL-5 melanoma,> 100 µM
same,TGI,DU-145 prostate,> 100 µM
same,TGI,HCT-116 colon,> 100 µM
same,TGI,OVCAR-4 ovarian,> 100 µM
same,GI50,SNB-75 CNS,43.1 µM and 19.8 µM
same,TGI,SNB-75 CNS,> 100 µM
O=c1c2cccnc2oc2c(Cl)cc(-c3nn[nH]n3)cc12,TGI,HCC-2998 colon,> 100 µM
same,TGI,SF-539 CNS,> 100 µM
same,TGI,SK-MEL-5 melanoma,> 100 µM
same,TGI,NCI/ADR-RES ovarian,> 100 µM
same,TGI,DU-145 prostate,> 100 µM
same,TGI,HCT-116 colon,> 100 µM
same,TGI,OVCAR-4 ovarian,> 100 µM
same,TGI,SNB-75 CNS,> 100 µM
CCSC12OC3(CCCCCN3C1=O)C1C(=O)N(c3ccccc3)C(=O)C12 (configuration not stated),TGI,SF-295 CNS,> 100 µM
same,TGI,LOX IMVI melanoma,> 100 µM
same,TGI,SF-539 CNS,> 100 µM
same,TGI,SK-MEL-5 melanoma,> 100 µM
same,TGI,NCI/ADR-RES ovarian,> 100 µM
same,TGI,DU-145 prostate,> 100 µM
same,TGI,HCT-116 colon,> 100 µM
same,TGI,OVCAR-4 ovarian,> 100 µM
same,TGI,SNB-75 CNS,> 100 µM
C=C1c2c(n(S(=O)(=O)c3ccccc3)c3ccccc23)[C@@]2(C(=O)OC)CC3C=CC2N1C3,TGI,SF-295 CNS,> 100 µM
same,TGI,HCC-2998 colon,> 100 µM
same,TGI,LOX IMVI melanoma,> 100 µM
same,TGI,SF-539 CNS,> 100 µM
same,TGI,NCI/ADR-RES ovarian,> 100 µM
same,TGI,DU-145 prostate,> 100 µM
same,TGI,HCT-116 colon,> 100 µM
same,TGI,OVCAR-4 ovarian,> 100 µM
same,TGI,SNB-75 CNS,> 100 µM
